Measured values published in patent US20150246902A1, “SUBSTITUED BENZOFURAN COMPOUNDS AND METHODS OF USE THEREOF FOR THE TREATMENT OF VIRAL DISEASES” (priority 2011, published 2015).

Experiments:
HCV replicon genotype 1a = test: microbe, parasite or virus in culture; assay type: cell-based; conditions: Hepatitis C virus, 96 h, HCV genotype 1a replicon cells, 96 hours incubation, NS3/4A ELISA readout
HCV replicon genotype 1b = test: microbe, parasite or virus in culture; assay type: cell-based; conditions: Hepatitis C virus, 96 h, HCV genotype 1b replicon cells, 96 hours incubation, NS3/4A ELISA readout

| Compound | IC50 (HCV replicon genotype 1a) [nM] | IC50 (HCV replicon genotype 1b) [nM] |
| --- | --- | --- |
| CNC(=O)c1c(-c2ccc(F)cc2)oc2cc(N(C)S(C)(=O)=O)c(-c3ccc4c(ccn4-c4cccc(F)c4)c3)cc12 [Compound 55] | 152 | 23.8 |
| CNC(=O)c1c(-c2ccc(F)cc2)oc2cc(N(C)S(C)(=O)=O)c(-c3cc(F)c4ncn(-c5ccc(F)c(C(N)=O)c5)c4c3)cc12 [Compound 110] | 111 | 13.8 |
| CNC(=O)c1c(-c2ccc(F)cc2)oc2cc(N(C)S(C)(=O)=O)c(-c3cc(F)c4nc(N)n(-c5cc(F)cc(F)c5)c4c3)cc12 [Compound 79] | 31.4 | 3.1 |
| CNC(=O)c1c(-c2ccc(F)cc2)oc2cc(N(C)S(C)(=O)=O)c(-c3ccc4nnc(-c5ccc(F)cc5)n4c3)cc12 [Compound 111, 2-(4-fluorophenyl)-5-(3-(4-fluorophenyl)-[1,2,4]triazolo[4,3-a]pyridin-6-yl)-N-methyl-6-(N-methylmethylsulfonamido)benzofuran-3-carboxamide] | 4.8 | 1.9 |
| CNC(=O)c1c(-c2ccc(F)cc2)oc2cc(N(C)S(C)(=O)=O)c(-c3ccc4ncn(-c5cc(F)cc(F)c5)c4n3)cc12 [Compound 43] | 158 | 17.3 |
| CNC(=O)c1c(-c2ccc(F)cc2)oc2cc(N(C)S(C)(=O)=O)c(-c3ccc4ncn(-c5cccc(C#N)c5)c4c3)cc12 [Compound 6] | 10.6 | 1.2 |
| CNC(=O)c1c(-c2ccc(F)cc2)oc2cc(N(C)S(C)(=O)=O)c(-c3ccc4ccn(Cc5ccc(F)cc5)c4c3)cc12 [Compound 68] | 54.2 | 18.6 |
| CNC(=O)c1c(-c2ccc(F)cc2)oc2cc(N(C)S(C)(=O)=O)c(-c3ccc4ncn(-c5cncc(F)c5)c4c3)cc12 [Compound 36] | 36.2 | 6.5 |
| CNC(=O)c1c(-c2ccc(F)cc2)oc2cc(N(C)S(C)(=O)=O)c(-c3ccc4onc(-c5ccccc5)c4c3)cc12 [Compound 83, 2-(4-fluorophenyl)-N-methyl-6-(N-methylmethylsulfonamido)-5-(3-phenylbenzo[d]isoxazol-5-yl)benzofuran-3-carboxamide] | 23.6 | 14.7 |
| CNC(=O)c1c(-c2ccc(F)cc2)oc2cc(N(C)S(C)(=O)=O)c(-c3cc(OC)c4[nH]c(=O)n(-c5cc(F)cc(F)c5)c4c3)cc12 [Compound 80, 5-(3-(3,5-difluorophenyl)-7-methoxy-2-oxo-2,3-dihydro-1H-benzo[d]imidazol-5-yl)-2-(4-fluorophenyl)-N-methyl-6-(N-methylmethylsulfonamido)benzofuran-3-carboxamide] | 9 | 6.6 |
| CNC(=O)c1c(-c2ccc(F)cc2)oc2cc(N(C)S(C)(=O)=O)c(-c3ccc4ncn(-c5ccccc5F)c4c3)cc12 [Compound 3] | 68 | 5.8 |
| CNC(=O)c1c(-c2ccc(F)cc2)oc2cc(N(C)S(C)(=O)=O)c(-c3ccc4ccn(-c5cccnc5)c4c3)cc12 [Compound 52] | 42.9 | 7.1 |
| CNC(=O)c1c(-c2ccc(F)cc2)oc2cc(N(C)S(C)(=O)=O)c(-c3ccc4ncn(-c5cccc(F)c5)c4c3)cc12 [Compound 14] | 2.7 | 1.2 |
| CNC(=O)c1c(-c2ccc(F)cc2)oc2cc(N(C)S(C)(=O)=O)c(-c3ccc4ncn(-c5ccccc5Cl)c4c3)cc12 [Compound 11] | 38.9 | 3.5 |
| CNC(=O)c1c(-c2ccc(F)cc2)oc2cc(N(C)S(C)(=O)=O)c(-c3cnc4ccn(-c5ccc(F)cc5)c4c3)cc12 [Compound 47, 2-(4-fluorophenyl)-5-(1-(4-fluorophenyl)-1H-pyrrolo[3,2-b]pyridin-6-yl)-N-methyl-6-(N-methylmethylsulfonamido)benzofuran-3-carboxamide] | 2.1 | 1.5 |
| CNC(=O)c1c(-c2ccc(F)cc2)oc2cc(N(C)S(C)(=O)=O)c(-c3ccc4[nH]ccc4c3)cc12 [Compound 62] | 183 | 22.9 |
| CNC(=O)c1c(-c2ccc(F)cc2)oc2cc(N(C)S(C)(=O)=O)c(-c3ccc4c(ccn4-c4ccc(F)cc4)c3)cc12 [Compound 54] | 109 | 14.1 |
| CNC(=O)c1c(-c2ccc(F)cc2)oc2cc(N(C)S(C)(=O)=O)c(-c3ccc4nnc(-c5ccc(C(F)(F)F)cc5)n4n3)cc12 [Compound 96, 2-(4-fluorophenyl)-N-methyl-6-(N-methylmethylsulfonamido)-5-(3-(4-(trifluoromethyl)phenyl)-[1,2,4]triazolo[4,3-b]pyridazin-6-yl)benzofuran-3-carboxamide] | 34.5 | 16.5 |
| CNC(=O)c1c(-c2ccc(F)cc2)oc2cc(N(C)S(C)(=O)=O)c(-c3cc(-c4nc5ncccc5o4)c4occc4c3)cc12 [Compound 97, 2-(4-fluorophenyl)-N-methyl-6-(N-methylmethylsulfonamido)-7′-(oxazolo[4,5-b]pyridin-2-yl)-[5,5′-bibenzofuran]-3-carboxamide] | 2.7 | 1.3 |
| CNC(=O)c1c(-c2ccc(F)cc2)oc2cc(N(C)S(C)(=O)=O)c(-c3cccc4c3ncn4-c3ccccc3)cc12 [Compound 38] | 629 | 155 |
| CNC(=O)c1c(-c2ccc(F)cc2)oc2cc(N(C)S(C)(=O)=O)c(-c3ccc4ccn(CCO)c4c3)cc12 [Compound 69] | 147 | 17.4 |

| Compound | IC50 (HCV replicon genotype 1a) [nM] | IC50 (HCV replicon genotype 1b) [nM] |
| --- | --- | --- |
| CNC(=O)c1c(-c2ccc(F)cc2)oc2cc(N(C)S(C)(=O)=O)c(-c3cc(OC)c4nc(C)n(-c5ccc(F)cc5)c4c3)cc12 [Compound 33] | 13.7 | 8.8 |
| CNC(=O)c1c(-c2ccc(F)cc2)oc2cc(N(C)S(C)(=O)=O)c(-c3ccc4ccn(-c5ccc(F)cc5)c4n3)cc12 [Compound 64] | 409 | 76.1 |
| CNC(=O)c1c(-c2ccc(F)cc2)oc2cc(N(C)S(C)(=O)=O)c(-c3cnc4ccn(-c5ccc(C#N)cc5)c4c3)cc12 [Compound 49] | 8.3 | 3.3 |
| CNC(=O)c1c(-c2ccc(F)cc2)oc2cc(N(C)S(C)(=O)=O)c(-c3ccc4cnn(-c5ccc(F)cc5)c4c3)cc12 [Compound 105, 2-(4-fluorophenyl)-5-(1-(4-fluorophenyl)-1H-indazol-6-yl)-N-methyl-6-(N-methylmethylsulfonamido)benzofuran-3-carboxamide] | 5.2 | 2.8 |
| CNC(=O)c1c(-c2ccc(F)cc2)oc2cc(N(C)S(C)(=O)=O)c(-c3ncc4ncn(-c5ccc(F)cc5)c4n3)cc12 [Compound 40] | 338 | 20.2 |
| CNC(=O)c1c(-c2ccc(F)cc2)oc2cc(N(C)S(C)(=O)=O)c(-c3ccc4ncn(-c5ccccc5)c4c3)cc12 [Compound 2] | 13.2 | 2.5 |
| CNC(=O)c1c(-c2ccc(F)cc2)oc2cc(N(C)S(C)(=O)=O)c(-c3ccc4ccn(-c5ccc(C(F)(F)F)cc5)c4c3)cc12 [Compound 61] | 34.2 | 10.1 |
| CNC(=O)c1c(-c2ccc(F)cc2)oc2cc(N(C)S(C)(=O)=O)c(-c3cnc4ccn(-c5ccc(C(F)(F)F)cc5)c4c3)cc12 [Compound 48] | 2.6 | 3.3 |
| CNC(=O)c1c(-c2ccc(F)cc2)oc2cc(N(C)S(C)(=O)=O)c(-c3ccc4ncc(-c5ccc(F)cc5)n4c3)cc12 [Compound 112, 2-(4-fluorophenyl)-5-(3-(4-fluorophenyl)imidazo[1,2-a]pyridin-6-yl)-N-methyl-6-(N-methylmethylsulfonamido)benzofuran-3-carboxamide] | 12.4 | 7.1 |
| CNC(=O)c1c(-c2ccc(F)cc2)oc2cc(N(C)S(C)(=O)=O)c(-c3ccc4nc(C)n(-c5ccccc5)c4c3)cc12 [Compound 18] | 16.6 | 2.1 |
| CNC(=O)c1c(-c2ccc(F)cc2)oc2cc(N(C)S(C)(=O)=O)c(-c3ccc4ncn(-c5cccnc5)c4c3)cc12 [Compound 16] | 37.2 | 4.6 |
| CNC(=O)c1c(-c2ccc(F)cc2)oc2cc(N(C)S(C)(=O)=O)c(-c3cc4c(cn3)ncn4-c3ccc(F)cc3)cc12 [Compound 46] | 74.5 | 10.7 |
| CNC(=O)c1c(-c2ccc(F)cc2)oc2cc(N(C)S(C)(=O)=O)c(-c3cc(-c4nc5c(F)cccc5o4)c4occc4c3)cc12 [Compound 98] | 3.7 | 4.1 |
| CNC(=O)c1c(-c2ccc(F)cc2)oc2cc(N(C)S(C)(=O)=O)c(-c3ccc4c(c3)ncn4-c3cccnc3)cc12 [Compound 22] | 14.4 | 3.3 |
| CNC(=O)c1c(-c2ccc(F)cc2)oc2cc(N(C)S(C)(=O)=O)c(-c3ccc4ncn(C5CCCNC5)c4c3)cc12 (stereo not drawn) [Compound 25] | 585 | 51.1 |
| CNC(=O)c1c(-c2ccc(F)cc2)oc2cc(N(C)S(C)(=O)=O)c(-c3ccc4c(n3)nc(-c3ccccc3)n4C(C)(C)C)cc12 [Compound 100, 5-(1-(tert-butyl)-2-phenyl-1H-imidazo[4,5-b]pyridin-5-yl)-2-(4-fluorophenyl)-N-methyl-6-(N-methylmethylsulfonamido)benzofuran-3-carboxamide] | 297 | 73 |
| CNC(=O)c1c(-c2ccc(F)cc2)oc2cc(N(C)S(C)(=O)=O)c(-c3ccc4[nH]nc(-c5ccncc5)c4c3)cc12 [Compound 74] | 20.6 | 5.4 |
| CNC(=O)c1c(-c2ccc(F)cc2)oc2cc(N(C)S(C)(=O)=O)c(-c3ccc4ncn(-c5ccccc5C(F)(F)F)c4c3)cc12 [Compound 9] | 75.8 | 7.1 |
| CNC(=O)c1c(-c2ccc(F)cc2)oc2cc(N(C)S(C)(=O)=O)c(-c3ccc4c(ccn4-c4cccnc4)c3)cc12 [Compound 57] | 13.9 | 3 |
| CNC(=O)c1c(-c2ccc(F)cc2)oc2cc(N(C)S(C)(=O)=O)c(-c3cn4ccnc4cn3)cc12 [Compound 90, 2-(4-fluorophenyl)-5-(imidazo[1,2-a]pyrazin-6-yl)-N-methyl-6-(N-methylmethylsulfonamido)benzofuran-3-carboxamide] | 2180 | 120 |
| CNC(=O)c1c(-c2ccc(F)cc2)oc2cc(N(C)S(C)(=O)=O)c(-c3ccc4ncn(C5CCOCC5)c4c3)cc12 [Compound 26] | 64.7 | 12 |
